# Source: patent US8664257B2, “Oxygen-substituted 3-heteroaroylamino-propionic acid derivatives and their use as pharmaceuticals” (Sanofi, priority 2010, dated 2014)
# Biological target: T1, Recombinant human cathepsin A (Homo sapiens, UniProt P10619)
# T1 construct: Recombinant human cathepsin A (residues 29-480, with a C-terminal 10-His tag); 10-His (C); purchased R&D Systems 1049-SE
# T1 sequence (P10619 29-312 limits assumed): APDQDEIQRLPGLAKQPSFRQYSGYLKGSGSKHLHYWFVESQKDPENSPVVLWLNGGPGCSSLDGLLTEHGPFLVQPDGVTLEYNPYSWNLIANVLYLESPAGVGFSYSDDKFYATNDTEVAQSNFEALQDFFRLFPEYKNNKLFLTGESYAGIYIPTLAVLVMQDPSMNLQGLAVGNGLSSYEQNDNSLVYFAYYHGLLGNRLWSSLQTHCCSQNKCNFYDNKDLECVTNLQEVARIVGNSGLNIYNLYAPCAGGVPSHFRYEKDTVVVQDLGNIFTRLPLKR
# T1 sequence (P10619 327-480 limits assumed): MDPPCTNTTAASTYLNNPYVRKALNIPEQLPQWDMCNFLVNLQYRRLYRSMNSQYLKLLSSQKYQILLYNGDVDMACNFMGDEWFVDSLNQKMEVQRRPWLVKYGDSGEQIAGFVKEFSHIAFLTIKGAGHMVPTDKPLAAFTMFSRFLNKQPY
# Assay: Cathepsin A inhibitory activity
# Format: biochemical
# Conditions: pharmacological test "Cathepsin A inhibitory activity"; IC50 given as class A/B/C; read-out: Activity (2): Cathepsin A inhibitory activity, IC50 class
# Outline: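 Read-out was microfluidic separation of cleaved vs. uncleaved Bodipy FL-bradykinin (2 μM), giving turnover, % inhibition and IC50. Compound and 833 ng/ml enzyme met for 15 min RT in pH 5.5 MES/DTT before substrate (15 min RT). The 29-480 His-tagged human enzyme was first activated by cathepsin L, then E-64 (10 μM).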
row,IC50 [nM],Compound
1,100 to 1000,O=C(O)CC(NC(=O)c1cc(O)n(-c2cccc(Cl)c2)n1)c1ccccc1F (stereo not drawn) [Example 254]
2,100 to 1000,COc1ccc(C(CC(=O)O)NC(=O)c2cc(O)n(-c3ccccc3F)n2)c(Cl)c1 (stereo not drawn) [Example 235]
3,100 to 1000,O=C(O)CC(NC(=O)c1cc(O)n(-c2ccc(F)cc2F)n1)c1cccc(Cl)c1F (stereo not drawn) [Example 192]

# Same assay, conditions: read-out: Activity (2): Cathepsin A inhibitory activity (IC50 class)
row,IC50 [nM],Compound
1,< 100,CCOc1cc(C(=O)NC(CC(=O)O)c2cccc(C)c2C)nn1-c1ccccc1Cl (stereo not drawn) [Example 743]
2,100 to 1000,"COc1ccc(C(CC(=O)O)NC(=O)c2cc(O)n(-c3ccccc3)n2)c(C(F)(F)F)c1 (stereo not drawn) [Example 546, 3-[(5-Hydroxy-1-phenyl-1H-pyrazole-3-carbonyl)-amino]-3-(4-methoxy-2-trifluoromethyl-phenyl)-propionic acid]"
3,1000 to 30000,"COc1ccc(C(F)(F)F)cc1C(CC(=O)O)NC(=O)c1cc(O)n(-c2ccccc2Cl)n1 (stereo not drawn) [Example 560, 3-{[1-(2-Chloro-phenyl)-5-hydroxy-1H-pyrazole-3-carbonyl]-amino}-3-(2-methoxy-5-trifluoromethyl-phenyl)-propionic acid]"
4,< 100,"Cc1ccccc1[C@H](CC(=O)O)NC(=O)c1cc(OC(=O)N2CCCC2)n(-c2ccccc2F)n1 [Example 613, Pyrrolidine-1-carboxylic acid 5-((S)-2-carboxy-1-o-tolyl-ethylcarbamoyl)-2-(2-fluoro-phenyl)-2H-pyrazol-3-yl ester]"
5,< 100,Cc1cc(COc2cc(C(=O)N[C@@H](CC(=O)O)c3ccccc3C)nn2-c2ccccc2F)on1 [Example 643]
6,100 to 1000,COc1cc(C(=O)NC(CC(=O)O)c2ccc(-c3ccc(F)cc3)cc2)nn1-c1ccccc1F (stereo not drawn) [Example 543]
7,< 100,Cc1ccccc1[C@H](CC(=O)O)NC(=O)c1cc(OCC2CCC2)n(-c2ccccc2F)n1 [Example 649]
8,100 to 1000,COc1cc(C(=O)N[C@@H](CC(=O)O)c2ccccc2C)nn1-c1ccccc1Cl [Example 608]
9,< 100,CCOc1cc(C(=O)N[C@@H](CC(=O)O)c2cccc(C)c2)nn1-c1ccccc1F [Example 712]
10,< 100,COc1c(Br)c(C(=O)N[C@@H](CC(=O)O)c2ccccc2C)nn1-c1ccccc1F [Example 594]
11,< 100,CCOc1cc(C(=O)N[C@@H](CC(=O)O)c2ccccc2C)nn1-c1ccccc1F [Example 662]

# Same assay, conditions: read-out: Activity (2): Cathepsin A inhibitory activity, IC50 class
row,Compound,IC50 [nM]
1,"COc1cccc([C@H](CC(=O)O)NC(=O)c2cc(OC[C@](C)(O)C(C)C)n(-c3ccccc3F)n2)c1 [Example 806, (S)-3-{[1-(2-Fluoro-phenyl)-5-((R)-2-hydroxy-2,3-dimethyl-butoxy)-1H-pyrazole-3-carbonyl]-amino}-3-(3-methoxy-phenyl)-propionic acid]",< 100
2,O=C(O)CC(NC(=O)c1cc(O)n(-c2ccc(Cl)cc2)n1)c1cccc(C(F)(F)F)c1Cl (stereo not drawn) [Example 289],100 to 1000
3,"CC(C)(C)[C@](C)(O)COc1cc(C(=O)N[C@H](CC(=O)O)Cc2ccc(C#N)cc2)nn1-c1ccccc1F [Example 832, (S)-4-(4-Cyano-phenyl)-3-{[1-(2-fluoro-phenyl)-5-((S)-2-hydroxy-2,3,3-trimethyl-butoxy)-1H-pyrazole-3-carbonyl]-amino}-butyric acid]",1000 to 30000
4,"CC(C)C(C)(O)COc1cc(C(=O)N[C@@H](CC(=O)O)c2cccc(C#N)c2)nn1-c1ccccc1F (stereo partly drawn) [Example 807, (S)-3-(3-Cyano-phenyl)-3-{[1-(2-fluoro-phenyl)-5-(2-hydroxy-2,3-dimethyl-butoxy)-1H-pyrazole-3-carbonyl]-amino}-propionic acid]",< 100
5,O=C(O)C[C@H](NC(=O)c1cc(O)n(-c2ccccc2)n1)c1ccccc1F [Example 96],100 to 1000

# Same assay, conditions: recombinant human cathepsin A 833 ng/ml, Bodipy FL-labeled bradykinin 2 μM, pH 5.5; read-out: CATH-A IC50
row,IC50 [nM],Compound
1,533,"COc1ccc(C(CC(=O)O)NC(=O)c2cc(O)n(-c3ccccc3)n2)c(C(F)(F)F)c1 (stereo not drawn) [Example 546, 3-[(5-Hydroxy-1-phenyl-1H-pyrazole-3-carbonyl)-amino]-3-(4-methoxy-2-trifluoromethyl-phenyl)-propionic acid]"
2,7620,"COc1ccc(C(F)(F)F)cc1C(CC(=O)O)NC(=O)c1cc(O)n(-c2ccccc2Cl)n1 (stereo not drawn) [Example 560, 3-{[1-(2-Chloro-phenyl)-5-hydroxy-1H-pyrazole-3-carbonyl]-amino}-3-(2-methoxy-5-trifluoromethyl-phenyl)-propionic acid]"
3,358,"Cc1ccc([C@H](CC(=O)O)NC(=O)c2cc(O)n(-c3ccc(F)cc3)n2)cc1 [Example 526, (S)-3-{[1-(4-Fluoro-phenyl)-5-hydroxy-1H-pyrazole-3-carbonyl]-amino}-3-p-tolyl-propionic acid]"

# Same assay, conditions: recombinant human cathepsin A; read-out: Activity (2): Cathepsin A inhibitory activity, IC50 class
row,IC50 [nM],Compound
1,100 to 1000,O=C(O)CC(NC(=O)c1cc(O)n(-c2cccc(F)c2)n1)c1cc(F)ccc1Cl (stereo not drawn) [Example 483]
2,100 to 1000,"Cc1ccc([C@H](CC(=O)O)NC(=O)c2cc(O)n(-c3ccc(F)cc3)n2)cc1 [Example 526, (S)-3-{[1-(4-Fluoro-phenyl)-5-hydroxy-1H-pyrazole-3-carbonyl]-amino}-3-p-tolyl-propionic acid]"
